Experimental data: PubChem BioAssay AID1845203 (Molecular Pharmacology Branch, DTP, NCI, 2023)

Test system: G-401 tumor spheroids, viability % test/control
Assay: Anticancer human tumor G-401 cell line growth inhibition;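 further: spheroids exposed to compound for 7 days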;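 on viability, T/C: 100% = DMSO vehicle-treated spheroids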
Details: spheroids with HUVEC and MSC; for IC50: curve of first compound; for viability, T/C: stronger effect = lower value; active means viability on the fitted dose curve at most 10% of control; inactive means the rest
How it was run: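 Complex spheroids of malignant cells with endothelial cells and mesenchymal stem cells; agents alone or combined, from near clinical Cmax (or 10 microM if unknown) down in half-log steps, 0.25% DMSO final.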

[2H]c1nc(C)nc([2H])c1-c1cc(NC[C@@H](C)c2cccc3c(C(=O)NC)ccnc23)ncn1 + COc1cc2c(cc1O)CCNC21CSC2c3c(OC(C)=O)c(C)c4c(c3C(COC1=O)N1C(O)C3Cc5cc(C)c(OC)c(O)c5C(C21)N3C)OCO4
active: viability, T/C (second compound 0.000949 µM, first compound 0.0316 µM) 7.05% | viability, T/C (second compound 0.000949 µM, first compound 0.1 µM) 5.74% | viability, T/C (second compound 0.000949 µM, first compound 0.316 µM) 8.4% | viability, T/C (second compound 0.000949 µM, first compound 1 µM) 8.02% | viability, T/C (second compound 0.000949 µM, first compound 3.16 µM) 6.93% | viability, T/C (second compound 0.000949 µM, first compound 10 µM) 3.48% | viability, T/C (second compound 0.003 µM, first compound 0.0316 µM) 0.16% | viability, T/C (second compound 0.003 µM, first compound 0.1 µM) 0.17% | viability, T/C (second compound 0.003 µM, first compound 0.316 µM) 0.14% | viability, T/C (second compound 0.003 µM, first compound 1 µM) 0.13% | viability, T/C (second compound 0.003 µM, first compound 3.16 µM) 0.14% | viability, T/C (second compound 0.003 µM, first compound 10 µM) 0.22%
< 31.6 nM: IC50 (second compound 0.0003 µM) | IC50 (second compound 0.000949 µM) | IC50 (second compound 0.003 µM)
inactive: viability, T/C (second compound 30 pM, first compound 0.0316 µM) 103% | viability, T/C (second compound 30 pM, first compound 0.1 µM) 103% | viability, T/C (second compound 30 pM, first compound 0.316 µM) 106% | viability, T/C (second compound 30 pM, first compound 1 µM) 105% | viability, T/C (second compound 30 pM, first compound 3.16 µM) 98.6% | viability, T/C (second compound 30 pM, first compound 10 µM) 106% | viability, T/C (second compound 94.9 pM, first compound 0.0316 µM) 88.6% | viability, T/C (second compound 94.9 pM, first compound 0.1 µM) 87.5% | viability, T/C (second compound 94.9 pM, first compound 0.316 µM) 93% | viability, T/C (second compound 94.9 pM, first compound 1 µM) 93.1% | viability, T/C (second compound 94.9 pM, first compound 3.16 µM) 93.9% | viability, T/C (second compound 94.9 pM, first compound 10 µM) 91.4% | viability, T/C (second compound 0.0003 µM, first compound 0.0316 µM) 36.1% | viability, T/C (second compound 0.0003 µM, first compound 0.1 µM) 39.9% | viability, T/C (second compound 0.0003 µM, first compound 0.316 µM) 40% | viability, T/C (second compound 0.0003 µM, first compound 1 µM) 42.6% | viability, T/C (second compound 0.0003 µM, first compound 3.16 µM) 31.8% | viability, T/C (second compound 0.0003 µM, first compound 10 µM) 37.4%
> 10000 nM: IC50 (second compound 30 pM) | IC50 (second compound 94.9 pM)
